Results from patent publication US11718645B2, “Macrocyclic therapeutic agents, methods of manufacture, and methods of treatment” (University of Florida Research Foundation, Incorporated, priority 2014, dated 2023).

Assays:
[1] = test system: VEGF-A secretion; experiment: Measurement of VEGF-A production (alphaLISA) in HCT116 culture supernatants; format: cell-based, human; details: for IC50: determined after 12 h (n = 3)
Procedure: Human colon adenocarcinoma HCT116 cells were purchased from ATCC (Manassas, Va.) and cultured in Dulbecco's modified Eagle's medium (Invitrogen, Carlsbad, Calif.) supplemented with 10% fetal bovine serum (HyClone, Logan, Utah) at 37° C. humidified air and 5% CO2.
HCT116 cells (1×10^4 cells per well) were seeded in 96-well plates and one day later treated with various concentrations of apratoxins or solvent control. After 12 h of incubation, culture supernatants were collected for detection of VEGF-A by using an alphaLISA kit (PerkinElmer, Waltham, Mass.) following the manufacturer's instructions. Briefly, acceptor bead and anti-VEGF antibody were incubated first with the supernatants for 60 min, donor beads were added later and incubated for another 30 min and then VEGF-A levels detected using Envision (PerkinElmer).

[2] = Microsomal stability; format: in vitro ADME, mouse
Procedure: HPLC-MS was done on a 3200 QTRAP (Applied Biosystems) equipped with a Shimadzu (Kyoto, Japan) UFLC System. Mouse serum and harmine were purchased from Sigma-Aldrich. Pooled CD1 mouse liver (female) microsomes were purchased from XenoTech, LCC (Lenexa, Kans.) with protein concentrations of 0.5 mg/ml. HCT116 cell lysates were prepared with PhosphoSafe lysis buffer (Novagen). Protein concentration was determined by using the BCA Assay. Analysis was carried out similarly as previously described [Liu, Y.; Salvador, L. A.; Byeon, S.; Ying, Y.; Kwan, J. C.; Law, B. K.; Hong, J.; Luesch. H. J. Pharmacol. Exp. Ther. 2010, 335, 351-361].
The stability of apratoxin A, S4 (BK), S7 (BL), S8 (BM) and S9 (BN) in the presence of mouse microsomes was determined by using an adaptation of a published procedure [Ackley, D. C.; Rockich, K. T.; Baker, T. R. Optimization in Drug Discovery: In Vitro Methods (Series: Methods in Pharmacology and Toxicology) (eds Yan Z, Caldwell J W) 2004, pp 151-162, Springer, New Jersey]. In brief, microsomes were added to prewarmed phosphate buffer (100 mM, pH 7.4) at 37° C. Apratoxin A, BK, BL, BM, or BN (3 μL) were added to the microsomal preparation followed by NADPH cofactor solution (1.3 mM NADP, 3.3 mM glucose 6-phosphate, 0.4 U/mL glucose-6-phosphate dehydrogenase, 3.3 mM MgCl2). The reaction was allowed to proceed for 3 min to 3 h (7 time points) at 37° C. (thermomixer, 1050 rpm). The reaction was quenched by addition of ethyl acetate and subsequently spiked with harmine. The zero time point was defined by denaturing the microsomes with ethyl acetate before the addition of apratoxins. Incubation of apratoxins with microsomes alone was also performed following the same procedure to determine NADPH-dependent metabolism. The final concentration of the incubation mixture contained 0.5 mg/ml protein concentration and 1 μM apratoxins.
(§1) Analysis of apratoxin A, S4 (BK), S7 (BL), S8 (BM) and S9 (BN) was done by using HPLC-MS [column, Onyx Monolithic C18 (3.0×100 mm), Phenomenex (Torrance, Calif.); solvent, water (solvent A) acetonitrile (solvent B); flow rate, 0.5 ml/min; detection by electrospray ionization-MS in positive ion mode (MRM scan)]. A stepwise gradient elution was used starting at 60% B and 40% A, then increasing to 80% B at 5 min and maintained at this condition for 5 min. Parameters were optimized before analysis by using direct syringe infusion. The retention times (tR, min; MRM ion pair) of the analytes and internal standard are as follows: harmine (2.2; 213.1→169.9), apratoxin A (4.7; 841.4→445.2), apratoxin S4 (BK) (4.1; 828.5→432.2), apratoxin S7 (BL) (4.05; 814.5→418.2), apratoxin S8 (BM) (5.2; 842.5→446.2), apratoxin S9 (BN) (4.9; 828.5→432.2). Compound-dependent parameters used were as follows: apratoxin A, declustering potential (DP) 51, entrance potential (EP) 12, collision energy (CE) 45, collision cell exit potential (CXP) 6, collision cell entrance potential (CEP) 32; and harmine, DP 56.0, EP 4.5, CE 44.0, CXP 5, CEP 16.0. Source gas parameters used were as follows: curtain gas, 15.0; collision gas low, ionspray voltage 5500; temperature, 600.0; ion source gas 150.0; ion source gas 2 60.0.
(§2) Calibration curves for apratoxin A, S4 (BK), S7 (BL), S8 (BM) and S9 (BN) in the presence of mouse serum, HCT116 cell lysates, and aqueous solutions were generated by least-square linear regression analysis of the analyte peak area and internal standard peak area ratio against the nominal concentration of the standard solutions. A linear regression analysis was performed, and the concentration of remaining apratoxins at each time point was determined through interpolation for plasma, cellular, and aqueous stability experiments. The amount of remaining apratoxins with microsome incubation was determined from the peak area ratio of apratoxins at tx (3 min to 3 h) and t0. All calculations were done by using Analyst 1.4.2 (Applied Biosystems) Quantitate Mode.

[3] = Cellular stability in HCT116 cell lysate; format: in vitro ADME, human; details: HCT116 protein lysate 0.7 mg/mL, up to 24 h, FIG. 2D
Procedure: Aliquots of HCT116 cell lysates were diluted with 25 mM Tris-HCl buffer, pH 8.0, to give a final reaction volume of 100 μL and protein concentration of 0.7 mg/mL. Cell lysate solutions were incubated with 10 μL of apratoxin A, BK, BL, BM, or BN (25 μg/mL) for 0.25 min to 24 h (nine time points). Remaining apratoxin A, BK, BL, BM, or BN were extracted from the reaction solution at the end of the incubation periods with ethyl acetate using the same procedure as described for the plasma stability assay.
as §1, §2

SMILES	IC50 [1] [nM]	% remaining ([2]; microsomes + NADPH, 0 min) [%]	% remaining ([2]; microsomes + NADPH, 3 min) [%]	% remaining ([2]; microsomes + NADPH, 5 min) [%]	% remaining ([2]; microsomes + NADPH, 15 min) [%]	% remaining ([2]; microsomes + NADPH, 30 min) [%]	% remaining ([2]; microsomes + NADPH, 60 min) [%]	% remaining ([2]; microsomes + NADPH, 120 min) [%]	% remaining ([2]; microsomes only, 0 min) [%]	% remaining ([2]; microsomes only, 3 min) [%]	% remaining ([2]; microsomes only, 5 min) [%]	% remaining ([2]; microsomes only, 15 min) [%]	% remaining ([2]; microsomes only, 30 min) [%]	% remaining ([2]; microsomes only, 60 min) [%]	% remaining ([2]; microsomes only, 120 min) [%]	cellular stability [3]	potency relative to the other apratoxins, VEGF-A secretion [1]
CC[C@H](C)[C@H]1C(=O)N2CCC[C@@H]2C(=O)O[C@H](C(C)(C)C)C[C@@H](C)C[C@H](O)CC2=N[C@@H](CCC(=O)N[C@@H](Cc3ccc(OC)cc3)C(=O)N(C)[C@@H](C)C(=O)N1C)CS2 [apratoxin S7 (BL), Apratoxin S7]	0.3	100	54.95 ± 4.74	18.70 ± 1.41	52.40 ± 2.40	6.10 ± 1.96	5.41 ± 1.09	4.30 ± 0.82	100	66.60 ± 12.30	60.50 ± 2.26	76.55 ± 9.55	54.80 ± 1.56	54.50 ± 0.00	53.85 ± 9.40	excellent	
CC[C@H](C)[C@H]1C(=O)N2CCC[C@@H]2C(=O)O[C@H](C(C)(C)C)C[C@@H](C)C[C@H](O)C(C)(C)C2=N[C@@H](CCC(=O)N[C@@H](Cc3ccc(OC)cc3)C(=O)N(C)[C@@H](C)C(=O)N1C)CS2 [apratoxin S8 (BM), Apratoxin S8]	0.47	100	37.20 ± 1.27	17.30 ± 2.55	8.28 ± 2.86	4.83 ± 1.05	3.55 ± 0.91	5.01 ± 0.23	100	74.10 ± 9.62	77.45 ± 3.18	63.45 ± 3.61	74.75 ± 8.70	81.25 ± 1.91	70.05 ± 0.78	excellent	
CC[C@H](C)[C@H]1C(=O)N2CCC[C@@H]2C(=O)O[C@H](C(C)(C)C)C[C@@H](C)C[C@H](O)[C@H](C)C2=N[C@H](CCC(=O)N[C@@H](Cc3ccc(OC)cc3)C(=O)N(C)[C@@H](C)C(=O)N1C)CS2 [apratoxin S9 (BN), Apratoxin S9]	0.12	100	51.40 ± 8.06	17.80 ± 0.28	3.55 ± 0.25	3.73 ± 0.25	6.06 ± 2.40	5.63 ± 0.18	100	83.10 ± 0.42	71.40 ± 1.27	45.25 ± 5.30	56.05 ± 1.06	48.45 ± 0.92	56.25 ± 0.21	excellent	2-3 fold
